One assay deals with T1, human cathepsin F (Homo sapiens, UniProt Q9UBX1).
T1 sequence (Q9UBX1 271-484): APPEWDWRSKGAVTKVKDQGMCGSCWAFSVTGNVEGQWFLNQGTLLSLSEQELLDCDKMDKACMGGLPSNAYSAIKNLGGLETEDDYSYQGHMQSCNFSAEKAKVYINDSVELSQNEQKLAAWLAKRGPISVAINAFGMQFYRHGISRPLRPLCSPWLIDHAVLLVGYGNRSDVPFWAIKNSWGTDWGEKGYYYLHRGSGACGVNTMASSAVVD
The assay can be described thus: Cathepsin F assay (hCat F). In kind it is biochemical. Conditions: Z-Phe-Arg-AMC substrate, pH 5.5, 15 min preincubation; read-out: hCat F (IP (nM)). In short, it runs like this: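 AMC release from Z-Phe-Arg-AMC, added at 8 μM, was monitored fluorometrically (360/460 nm) for 20 min after 10 nM enzyme and compound had been preincubated 15 min at room temperature. Buffer: MES 50 mM pH 5.5, EDTA and DTT 2.5 mM each, 10% DMSO. Compound DMSO dilutions spanned 500–0.025 μM (3-fold). Dose-response fitting gave % inhibition.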

The target of another assay is human cathepsin K (UniProt P43236). The assay is described as follows: Cathepsin K Assay (hrbCat K). In kind it is biochemical. Conditions: Z-Leu-Arg-AMC substrate, pH 5.5, 15 min preincubation; read-out: hrbCat K (IP (nM)). In a few lines:
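Human cathepsin K (0.4 nM) was preincubated 15 min at room temperature with compound in 50 mM MES pH 5.5, 2.5 mM EDTA, 2.5 mM DTT and 10% DMSO. Inhibition was fitted to a dose-response model.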

Molecules are shown by their SMILES.

Our source for the IC50 values is patent publication US9573913B2, “Cathepsin cysteine protease inhibitors” (Merck Sharp & Dohme Corp., priority 2013, dated 2017).

For the compound `N#CC1(NC(=O)[C@@H]2CCCC[C@H]2c2nc(-c3cnc(C4CC4)c(F)c3)sc2-c2ccc(N3CCS(=O)(=O)CC3)cc2)CC1` [Example 99, (1R,2R)-N-(1-cyanocyclopropyl)-2-(2-(6-cyclopropyl-5-fluoropyridin-3-yl)-5-(4-(1,1-dioxidothiomorpho-lino)phenyl)thiazol-4-yl)cyclohexane-carboxamide], the IC50 on human cathepsin F stood at 3330 nM; at human cathepsin K, 1.7 nM.

Regarding `CC1(C)CN(c2nc([C@@H]3CCCC[C@H]3C(=O)NC3(C#N)CC3)c(-c3ccc(N4CCS(=O)(=O)CC4)cc3)s2)CC(C)(C)O1` [Example 101, (1R,2R)-N-(1-cyanocyclopropyl)-2-(5-(4-(1,1-dioxidothiomorpho-lino)phenyl)-2-(2,2,6,6-tetramethylmorpho-lino)thiazol-4-yl)cyclohexane-carboxamide], the IC50 was at least 10000 nM at human cathepsin F and 48.8 nM on human cathepsin K.

Regarding `N#CC1(NC(=O)[C@@H]2CCCC[C@H]2c2nc(N3CCC4(CC3)CC4)sc2-c2ccc(N3CCS(=O)(=O)CC3)cc2)CC1` [Example 102, (1R,2R)-N-(1-cyanocyclopropyl)-2-(5-(4-(1,1-dioxidothiomorpho-lino)phenyl)-2-(6-azaspiro[2.5]octan-6-yl)thiazol-4-yl)cyclohexane-carboxamide], the IC50 is 1000 nM on human cathepsin F and 2.4 nM on human cathepsin K.

For `N#CC1(NC(=O)[C@@H]2CCCC[C@H]2c2nc(N3CCOC(c4ccccc4)C3)sc2-c2ccc(N3CCS(=O)(=O)CC3)cc2)CC1` (stereo partly drawn) [Example 103, (1R,2R)-N-(1-cyanocyclopropyl)-2-(5-(4-(1,1-dioxidothiomorpho-lino)phenyl)-2-(2-phenylmorpholino)thiazol-4-yl)cyclohexane-carboxamide], the IC50 was determined as 1000 nM at human cathepsin F and 1.2 nM at human cathepsin K.

On to `N#CC1(NC(=O)[C@@H]2CCCC[C@H]2c2nc(N3CCCC(F)(F)C3)sc2-c2ccc(N3CCS(=O)(=O)CC3)cc2)CC1` [Example 106, (1R,2R)-N-(1-cyanocyclopropyl)-2-(2-(3,3-difluoropiperidin-1-yl)-5-(4-(1,1-dioxidothiomorpho-lino)phenyl)thiazol-4-yl)cyclohexane-carboxamide], for which the IC50 on human cathepsin F is at least 10000 nM; at human cathepsin K it was 2.9 nM.

Regarding `N#CC1(NC(=O)[C@@H]2CCC(F)(F)C[C@H]2c2nc(-c3ccc(F)cn3)sc2-c2ccc(N3CCS(=O)(=O)CC3)cc2)CC1` [Example 107, (1R,2R)-N-(1-cyanocyclopropyl)-2-(5-(4-(1,1-dioxidothiomorpho-lino)phenyl)-2-(5-fluoropyridin-2-yl)thiazol-4-yl)-4,4-difluorocyclohexane-carboxamide], the IC50 turned out to be 1000 nM on human cathepsin F and 3.3 nM on human cathepsin K.

For `N#CC1(NC(=O)[C@@H]2CCCC[C@H]2c2nc(-c3cccc(C4CCOCC4)c3)sc2-c2ccc(N3CCS(=O)(=O)CC3)cc2)CC1` [Example 110, (1R,2R)-N-(1-cyanocyclopropyl)-2-(5-(4-(1,1-dioxidothiomorpho-lino)phenyl)-2-(3-(tetrahydro-2H-pyran-4-yl)phenyl)thiazol-4-yl)cyclohexane-carboxamide], the IC50 at human cathepsin F was found to be 3330 nM; on human cathepsin K it was 1.7 nM.

Turning to `COc1ccc(-c2nc([C@@H]3CC[C@H](F)C[C@H]3C(=O)NC3(C#N)CC3)c(-c3ccc(N4CCS(=O)(=O)CC4)cc3)s2)nc1` [Example 114, (1R,2R,5S)-N-(1-cyanocyclopropyl)-2-(5-(4-(1,1-dioxidothiomorpho-lino)phenyl)-2-(5-methoxypyridin-2-yl)thiazol-4-yl)-5-fluorocyclohexane-carboxamide], the figures for the IC50 at human cathepsin F and at human cathepsin K were 1000 nM and 1.1 nM, respectively.

For `N#CC1(NC(=O)[C@@H]2CCC(F)(F)C[C@H]2c2nc(-c3cncc(Cl)c3)sc2-c2ccc(N3CCS(=O)(=O)CC3)cc2)CC1` [Example 115, (1R,2R)-2-(2-(5-chloropyridin-3-yl)-5-(4-(1,1-dioxidothiomorpho-lino)phenyl)thiazol-4-yl)-N-(1-cyanocyclopropyl)-4,4-difluorocyclohexane-carboxamide], the results for the IC50 at human cathepsin F and on human cathepsin K were 2660 nM and 2.2 nM, respectively.

For `N#CC1(NC(=O)[C@@H]2C[C@@H](F)CC[C@H]2c2nc(N3CCOCC3)sc2-c2ccc(N3CCS(=O)(=O)CC3)cc2)CC1` [Example 116, (1R,2R,5S)-N-(1-cyanocyclopropyl)-2-(5-(4-(1,1-dioxidothiomorpho-lino)phenyl)-2-morpholinothiazol-4-yl)-5-fluorocyclohexane-carboxamide], the IC50 at human cathepsin F was found to be 1000 nM; at human cathepsin K, 2.4 nM.

As to `N#CC1(NC(=O)[C@@H]2CCCC[C@H]2c2nc(N3CC(F)(F)C3)sc2-c2ccc(N3CCS(=O)(=O)CC3)cc2)CC1` [Example 117, (1R,2R)-N-(1-cyanocyclopropyl)-2-(2-(3,3-difluoroazetidin-1-yl)-5-(4-(1,1-dioxidothiomorpho-lino)phenyl)thiazol-4-yl)cyclohexane-carboxamide], the IC50 is at least 10000 nM at human cathepsin F and 8 nM on human cathepsin K.

In the case of `N#CC1(NC(=O)[C@@H]2CCCC[C@H]2c2nc(-c3ccnc(C(F)(F)F)n3)sc2-c2ccc(N3CCS(=O)(=O)CC3)cc2)CC1` [Example 118, (1R,2R)-N-(1-cyanocyclopropyl)-2-(5-(4-(1,1-dioxidothiomorpho-lino)phenyl)-2-(2-(trifluoromethyl)pyrimidin-4-yl)thiazol-4-yl)cyclohexane-carboxamide], the values for the IC50 at human cathepsin F and at human cathepsin K were at least 10000 nM and 59.4 nM, respectively.

Turning to `Cc1nccc(-c2nc([C@@H]3CCCC[C@H]3C(=O)NC3(C#N)CC3)c(-c3ccc(N4CCS(=O)(=O)CC4)cc3)s2)n1` [Example 119, (1R,2R)-N-(1-cyanocyclopropyl)-2-(5-(4-(1,1-dioxidothiomorpho-lino)phenyl)-2-(2-methylpyrimidin-4-yl)thiazol-4-yl)cyclohexane-carboxamide], the IC50 was 1200 nM at human cathepsin F and 1.3 nM at human cathepsin K.

On to `N#CC1(NC(=O)[C@@H]2CCCC[C@H]2c2nc(-c3ccc4c(c3)OCCO4)sc2-c2ccc(N3CCS(=O)(=O)CC3)cc2)CC1` [Example 120, (1R,2R)-N-(1-cyanocyclopropyl)-2-(2-(2,3-dihydrobenzo[b][1,4]dioxin-6-yl)-5-(4-(1,1-dioxidothiomorpho-lino)phenyl)thiazol-4-yl)cyclohexane-carboxamide], for which the figures for the IC50 on human cathepsin F and at human cathepsin K were 1110 nM and 1.4 nM, respectively.

In the case of `N#CC1(NC(=O)[C@@H]2CCCC[C@H]2c2nc(-c3ccc(C4CCOCC4)cc3)sc2-c2ccc(N3CCS(=O)(=O)CC3)cc2)CC1` [Example 121, (1S,2R)-N-(1-cyanocyclopropyl)-2-(5-(4-(1,1-dioxidothiomorpho-lino)phenyl)-2-(4-(tetrahydro-2H-pyran-4-yl)phenyl)thiazol-4-yl)cyclohexane-carboxamide], the figures for the IC50 at human cathepsin F and at human cathepsin K were 1110 nM and 1.5 nM, respectively.

For the compound `N#CC1(NC(=O)[C@@H]2CCCC[C@H]2c2nc(-c3ccc(F)c(C4CCOCC4)c3)sc2-c2ccc(N3CCS(=O)(=O)CC3)cc2)CC1` [Example 122, (1R,2R)-N-(1-cyanocyclopropyl)-2-(5-(4-(1,1-dioxidothiomorpho-lino)phenyl)-2-(4-fluoro-3-(tetrahydro-2H-pyran-4-yl)phenyl)thiazol-4-yl)cyclohexane-carboxamide], the IC50 on human cathepsin F stood at 1110 nM; at human cathepsin K, 2.2 nM.

For `N#CCNC(=O)[C@@H]1C[C@@H](F)CC[C@H]1c1nc(-c2cncc(F)c2)sc1-c1ccc(N2CCS(=O)(=O)CC2)cc1` [Example 123, (1R,2R,5S)-N-(cyanomethyl)-2-(5-(4-(1,1-dioxidothiomorpho-lino)phenyl)-2-(5-fluoropyridin-3-yl)thiazol-4-yl)-5-fluorocyclohexane-carboxamide], the values for the IC50 at human cathepsin F and at human cathepsin K were 2490 nM and 1.7 nM, respectively.

For the compound `N#CCNC(=O)[C@@H]1C[C@@H](F)CC[C@H]1c1nc(-c2ccc(F)cn2)sc1-c1ccc(N2CCS(=O)(=O)CC2)cc1` [Example 124, (1R,2R,5S)-N-(cyanomethyl)-2-(5-(4-(1,1-dioxidothiomorpho-lino)phenyl)-2-(5-fluoropyridin-2-yl)thiazol-4-yl)-5-fluorocyclohexane-carboxamide], the IC50 on human cathepsin F came to 3120 nM; at human cathepsin K, 1.8 nM.

As to `CS(=O)(=O)c1ccc(-c2sc(-c3cncc(F)c3)nc2[C@@H]2CCCC[C@H]2C(=O)NC2(C#N)CC2)cc1` [Example 125, (1R,2R)-N-(1-cyanocyclopropyl)-2-(2-(5-fluoropyridin-3-yl)-5-(4-(methylsulfonyl)phenyl)thiazol-4-yl)cyclohexane-carboxamide], the IC50 at human cathepsin F is 310 nM; on human cathepsin K, 7.5 nM.

As for `Cc1ncc(-c2nc([C@@H]3CC[C@H](F)C[C@H]3C(=O)NC3(C#N)CC3)c(-c3ccc(N4CCS(=O)(=O)CC4)cc3)s2)s1` [Example 128, (1R,2R,5S)-N-(1-cyanocyclopropyl)-2-(5-(4-(1,1-dioxidothiomorpho-lino)phenyl)-2′-methyl-[2,5′-bithiazol]-4-yl)-5-fluorocyclohexane-carboxamide], the IC50 on human cathepsin F is at least 10000 nM; at human cathepsin K, 1.8 nM.
